“And” between values parts separate entries of the source, which are not always exact repeats. Equal entries are not always repeated.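 The compound was tested at five concentrations on cells cultured in 96-well plates, with a 48-hour exposure period. GI50 = concentration required for 50% inhibition of growth. TGI marks complete inhibition of growth.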
Assays:
Assay in all cases: DTP human tumour cell line panel, 48 h
[1] = system: COLO 205 colon
[2] = system: SR leukemia
[3] = system: MALME-3M melanoma
[4] = system: NCI-H23 lung
[5] = system: LOX IMVI melanoma
[6] = system: SF-295 CNS
[7] = system: M14 melanoma
[8] = system: MOLT-4 leukemia
[9] = system: NCI/ADR-RES ovarian
[10] = system: DU-145 prostate

Structure (SMILES) | TGI [1] | TGI [2] [µM] | TGI [3] | TGI [4] | TGI [5] | TGI [6] [µM] | TGI [7] | TGI [8] [µM] | GI50 [1] [µM] | GI50 [9] [µM] | TGI [9] | GI50 [10] [µM] | TGI [10] [µM] | GI50 [8] [µM] | GI50 [3] | GI50 [4] [µM] | GI50 [5] [µM] | GI50 [6] [µM] | GI50 [7] [µM] | GI50 [2] [µM]
CN(/C(=N\O)c1ccccc1)c1ccccc1 | > 100 µM | 75.4 | 84.1 µM | 61.2 µM | 75.7 µM | 43.4 | 57.5 µM |  |  |  |  |  |  |  |  |  |  |  |  | 
O/N=C1/C(=C/c2ccccc2)CCCC1C(NO)c1ccccc1 (configuration not stated) | > 100 µM |  | > 100 µM | > 100 µM | > 100 µM | > 100 | > 100 µM | 90.8 |  |  |  |  |  |  |  |  |  |  |  | 
COC(=O)C1CCC(N2C(=O)CCC2C(=O)OC)=N1 (configuration not stated) | > 100 µM |  | > 100 µM | > 100 µM | > 100 µM | > 100 | > 100 µM | > 100 |  |  |  |  |  |  |  |  |  |  |  | 
CN(C(=O)C1CC1)C1C2CN3CCC(O2)C13 (configuration not stated) | > 100 µM |  | > 100 µM | > 100 µM | > 100 µM | > 100 | > 100 µM | > 100 |  |  |  |  |  |  |  |  |  |  |  | 
Cc1cc(S(=O)(=O)Nc2nc3ccsc3c(=O)n2Cc2ccccc2)c(S)cc1Cl | > 100 µM |  | 50.1 µM | 57.5 µM | 65.3 µM | 98.7 | 49.6 µM | > 100 | 37.5 | 67.8 | > 100 µM | 34.6 | > 100 | 37.9 | 21.2 µM | 24.9 | 31.1 | 26.8 | 21.8 | 
COc1cc(C(=C2SCCS2)c2nccc3cc(OC)c(OC)cc23)c([N+](=O)[O-])cc1OC | > 100 µM | > 100 | > 100 µM | > 100 µM | > 100 µM | > 100 | > 100 µM | > 100 |  |  |  |  |  |  |  |  |  |  |  | 
CCCCCCCCCCCCCCCCCCOCC1(COP(=O)([O-])OCC[N+](C)(C)C)CCCO1 (configuration not stated) | 3.63 µM |  | 26.2 µM | 31.9 µM | 19.3 µM | 6.84 | 8.59 µM | 4.84 |  |  |  |  |  |  |  |  |  |  |  | 
Cn1c(=O)c2[nH]cnc2n(CC(=O)O)c1=O | > 100 µM | > 100 | > 100 µM | > 100 µM |  |  | > 100 µM | > 100 |  |  |  |  |  |  |  |  |  |  |  | 
NC(=O)C12CCC1C1CCCCC12N1CCOCC1 (configuration not stated) |  | > 100 | > 100 µM | > 100 µM | > 100 µM | > 100 | > 100 µM | > 100 |  |  |  |  |  |  |  |  |  |  |  | 
CC(C)[C@H](O)C(=O)N[C@H]1Cc2ccc3c(c2)[C@]24C5=C(N=C(O5)[C@H](C(C)C)NC1=O)c1nc(Cl)c(o1)-c1c(Cl)[nH]c5cccc(c15)-c1cccc2c1N[C@H]4O3 |  |  | 0.0526 µM | 3.82 µM |  | 3.87 | > 10 µM | > 10 |  |  | 3.22 µM | < 0.001 | 0.748 |  |  | < 0.001 |  | < 0.001 | 0.0012 | 
C[n+]1ccc2[nH]c3ccccc3c2c1 | > 100 µM |  | 99.4 µM | > 100 µM | > 100 µM | > 100 | > 100 µM | > 100 |  |  |  |  |  |  |  |  |  |  |  | 
COC(=O)NN=C1C(C)(C)C(=NNC(=O)OC)C1(C)C | > 56 µM |  | > 100 µM | > 78.1 µM | > 50.9 µM | > 100 | > 100 µM | > 100 |  |  |  |  |  |  |  |  |  |  |  | 
CO[C@@]12[C@H](COC(N)=O)C3=C(C(=O)C(C)=C(N)C3=O)N1C[C@@H]1N[C@@H]12 | 5.21 µM and 8.43 µM and 7.05 µM |  | 4.06 µM and 6.53 µM and 4.03 µM | 1.43 µM and 3.86 µM and 4.56 µM | 4.26 µM and 3.47 µM |  | 4.08 µM and 12.2 µM and 2.06 µM |  | 1.7 | 3.83 | 20 µM and 21.4 µM and > 100 µM |  |  | 0.271 | 2.26 µM and 1.38 µM | 0.77 | 0.615 |  | 1.09 | 0.0345
C#CCOc1cccc(Nc2ncnc3c2ncn3C2CCN(C(=O)CCl)C2)c1 (configuration not stated) |  |  | 28.1 µM | 41.3 µM |  | > 100 | 48.5 µM |  |  | 41.3 | > 100 µM | 19.8 | 37.5 |  | 12.3 µM | 18.4 |  | > 100 | 16.9 | 
O=C(Nn1c2c(sc1=NC1CC1)C(=O)c1ccccc1C2=O)c1cc2ccc1CCc1ccc(cc1)CC2 | 12.7 µM |  | 1.75 µM | 4.32 µM | 2.62 µM | 12.7 | 2.83 µM | 8.89 | 3.36 | 1.93 | 6.77 µM | 1.85 | 3.43 | 2.22 | 0.57 µM | 1.31 | 0.966 | 3.55 | 1.33 | 
Clc1ccc2c(NCCN3CCN(c4ccnc(N5CCCC5)n4)CC3)ccnc2c1 | 3.59 µM |  | 3.74 µM | 22.7 µM | 3.55 µM | 5.44 | 3.61 µM | 38.2 | 1.63 | 4.12 | 18.1 µM | 5.71 | 20.3 | 3.58 | 1.91 µM | 6.88 | 1.72 | 2.37 | 1.91 | 
O=C(Cc1nc2ccccc2s1)C(=O)Nc1ccc(Cl)cc1Cl | > 100 µM | > 100 | > 100 µM | > 100 µM | > 100 µM | > 100 | > 100 µM | > 100 |  |  |  |  |  |  |  |  |  |  |  | 
CCC[CH2][Sn]1([CH2]CCC)[O]CC([CH2][Sn]([c]2ccccc2)([c]2ccccc2)[c]2ccccc2)[O]1 (configuration not stated) | 23 µM | > 100 | 26.4 µM |  |  | 30.4 | 31.4 µM | 28.5 | 10.4 |  |  |  |  | 3.22 | 13.6 µM |  |  | 16.2 | 15.9 | 3.78
CN(C)NC(=S)NC12CC3CC(CC(C3)C1)C2 | > 100 µM |  | > 100 µM | > 100 µM | > 100 µM | > 100 | > 100 µM | > 100 |  |  |  |  |  |  |  |  |  |  |  | 
CC(=O)[CH-]C(=O)c1ccccc1.CC(=O)[CH-]C(=O)c1ccccc1.CC12CC3(C)CC(C)(C1)CC([O-])(C2)C3.CC[O-].[Ti+4] | 40.2 µM |  | 47 µM | 34.4 µM | 31.1 µM | > 100 | 32.8 µM | > 100 | 19.4 |  |  |  |  | 28.9 | 17.5 µM | 18.1 | 13.2 | 33.4 | 16.9 | 

Reference: PubChem BioAssay (NCI)
